The results in this text go back to patent US5321035A, “Piperidine derivatives and process for preparation thereof” (Shionogi & Co., Ltd., priority 1992, dated 1994).

In data set [1] the test system is [3H]5-HT uptake by synaptosomes. Briefly: {3H} Serotonin (5-HT) Uptake Inhibition Test in brain synaptosomes. Type of data set: biochemical, rat (male Slc: Wistar strain). The note with it: for IC50: 5 nM [3H]5-HT, 5 min at 37° C, rat brain synaptosomes. From the text:
(1) Evaluation of Effects on Neurotransmittal Systems {^3 H} Serotonin (5-HT) Uptake Inhibition Test
Compound (a): a compound of the present invention
Compound (b): 1-[3-{4-(3,4-dichlorophenyl)-piperidin-1-yl}propylcarbamoyl]-2-oxopyrrolidin (Japanese Patent Publication (KOKAI) No.131155/1989).
Male Slc: Wistar strain rats (12-week-old, Japan SLC).
Rats were killed by decapitation and a whole brain except for cerebellum is isolated immediately. The isolated tissue was homogenized in 20 volume of ice-cold 0.32 M sucrose solution by Potter-type homogenizer and centrifuged at 1,000× g for 10 min. The supernatant is centrifuged at 40,000× g for 20 min. The resultant pellet is resuspended in 20 volume of Krebs-Henseleit buffer containing 1 mM ascorbate, 0.17 mM EDTA and 0.08 mM pargyline by Polytron and centrifuged at 40,000× g for 10 min, which procedure was repeated two more times. The finally obtained pellet was resuspended in 20 volume of ice-cold Krebs-Henseleit buffer using Polytron. The resultant suspension was diluted to 1/10 with the same buffer to give a synaptosome sample.
A mixture of 5 nM [^3 H]5-HT (10 μl), synaptosome sample (480 μl ) and a solution (10 μl ) containing a test compound at a predetermined concentration was incubated for 5 min at 37° C. The reaction was stopped by diluting the mixture with ice-cold Krebs-Henseleit buffer (2.5 ml) and filtering with suction on Whatman GF/C paper. The filter paper was washed three times with ice-cold Krebs-Henseleit buffer (2.5 ml each) and allowed to stand for about 18 hr in Cleasol-1 solution (5 ml). The radioactivity was then measured by means of a liquid scintillation counter. A control experiment was carried out in the same manner as the above using 5 nM [^3 H]5-HT (10 μl ), synaptosome sample (480 μl ) and a solvent (10 μl ) used for dissolving a test compound to obtain blank values of radioactivity. […]

Data set [2] relates to hippocampus CAI pyramidal cells. Briefly: Inhibitory effect against delayed necrosis of hippocampus pyramidal cells after cerebral ischemia (bilateral common carotid artery ligation). The data set is classed as in vivo, Mongolian gerbil. The following applies: for injury (%) in pyramidal cell layer: 30 min before 5 min occlusion, 4th day; for inhibition (%) of injury: vs control. On the procedure: Inhibitory effect against the delayed necrosis of hippocampus CAI pyramidal cells was determined.
Compound (a) and compound (b) were again used in this experiment. Three to eight male mice (Mongolian gerbil, 11 to 12-week-old, Seiwa Jikken-dobutsuKenkyusyo) were used for one group.
Each animal was intraperitoneally administered a solution of the test compound (a) or (b) dissolved in distilled water, or only distilled water (for control) at 0.2 ml/100 g weight of the animal. Thirty minutes later, under the halothane anesthesia, bilateral common carotid artery was separated from surrounding tissues and ligated for a period of 5 min with Sugita's artery Klemme. Anesthesia was stopped at the time of artery occlusion. On the 4th day after the operation, each animal was anesthetized with pentobarbital Na (45 mg/kg), and brain was perfused with 4% paraformaldehyde solution and removed. From the brain was prepared a piece of cerebral preparation containing hippocampus. It was placed in Carnoy's fixative overnight for fixation and embedded in paraffin, from which sliced coronal preparations of 10 μm thick were prepared. Each cerebral preparation was stained with hematoxylin-eosin and the rate of injury (%) in pyramidal cell layer extending from paramedian to CA4 was observed using two-dimensional image analyzer (Cosmozon IS, Nicon).

Data set [3] has as its system 7-alkoxycumarin-O-dialkylase. Briefly: Enzyme Induction Test (liver microsomal 7-alkoxycumarin-O-dialkylase activities after repeated dosing). Type of data set: in vivo, mouse (male, DS). On the procedure:
Male mice (DS, 5-6 week-old) received intraperitoneally 100 mg/kg of the compound (a) of the present invention or the compound (c) (1-[3-}4-(3,4,-dichlorophenyl)-1,2,5,6-tetrahydropiperidin-1-yl}propylcarbamoyl]-2-oxopyrrolidine) suspended in 5% gum arabic once a day for three days. After 24 hrs from the final administration, the liver was removed from the animal, and liver microsome was prepared by means of centrifugal fractionation. Additional liver microsomes were prepared in the same manner as above by intraperitoneally administering a typical enzyme inducer, phenobarbital (dissolved in saline) or β-naphthoflavone (suspended in sesame oil), to mice. Enzymatic activities of the above liver microsomes on drug metabolism were evaluated by determining their 7-alkoxycumarin-O-dialkylase activities.
In general terms: Microsomes from liver hold many membrane-bound enzymes, among them those of drug oxidation.

The mark [4] stands for this setting: mouse, in vivo, ip, 100 mg/kg, 1440 min.
Setting [5] is: i.p., compounds (a), (c): 100 mg/kg once a day for three days, control = 1.00.
Where [6] appears, read: i.p., compounds (a), (c): 100 mg/kg once a day for three days, liver microsomes.
Where [7] appears, read: three days, compared with the control.

For the compound “1-[3-{4-(3,4-dichlorophenyl)-piperidin-1-yl}propylcarbamoyl]-2-oxopyrrolidin [Compound (b)]”, the midpoint of inhibition in data set [1], the IC50, lay at 23 µM. In addition, the “injury (%) in pyramidal cell layer” value in data set [2] (12.5 mg/kg i.p.) stood at 44.0 ± 3.2%; in data set [2] (25.0 mg/kg i.p.) it was 28.1 ± 8.3%; in data set [2] (50.0 mg/kg i.p.) it was 30.7 ± 3.9%. Further, the figures for the “inhibition (%) of injury” value in data set [2] (12.5 mg/kg i.p.), in data set [2] (25.0 mg/kg i.p.) and in data set [2] (50.0 mg/kg i.p.) were “+2.8%”, “+38.0%” and “+32.1%”, respectively.
In the case of `O=C1CCCN1C(=O)NCCCN1CCC(c2ccc(Cl)c(Cl)c2)CC1` [Compound (a), 1-[3-{4-(3,4-Dichlorophenyl)piperidin-1-yl}-propylcarbamoyl]-2-oxopyrrolidine], in data set [1], 0.13 µM corresponded to half-maximal inhibition (IC50). The “serotonin uptake inhibitory activity (in words)” value in data set [1] (compared to compound (b)) is “much more potent serotonin uptake inhibitory activity”. In addition, in data set [2] (12.5 mg/kg i.p.), the “injury (%) in pyramidal cell layer” value was determined as 45.9 ± 2.1% and the “inhibition (%) of injury” value is “+8.0%”. Moreover, in data set [2] (25.0 mg/kg i.p.), the “injury (%) in pyramidal cell layer” value is on record as 33.6 ± 5.3% and the “inhibition (%) of injury” value was “+32.7%”. Also, the “inhibition of delayed necrosis of hippocampus CAI pyramidal cells (in words)” value in data set [2] (50 mg/kg i.p.) is reported as “completely inhibited”. In addition, in data set [2] (50.0 mg/kg i.p.), the “injury (%) in pyramidal cell layer” value is 0% and the “inhibition (%) of injury” value was “+100%”. The “inhibition of delayed necrosis of hippocampus CAI pyramidal cells (in words)” value in data set [2] (12.5 and 25 mg/kg i.p.) is “significantly inhibited”. For the same compound, the “enzyme induction (in words)” value in data set [3] (mouse, in vivo) was “no enzyme induction was observed”. Further, in data set [3] (mouse, in vivo, ip, 100 mg/kg), the “deethylation activity (7-alkoxycumarin-O-dialkylase)” value is reported as 2.59 ± 0.27 nmol/min/mg of microsome protein, the “demethylation activity (7-alkoxycumarin-O-dialkylase)” value is 2.79 ± 0.33 nmol/min/mg of microsome protein and the “depropylation activity (7-alkoxycumarin-O-dialkylase)” value is given as 1.08 ± 0.12 nmol/min/mg of microsome protein. In data set [3] (setting [4]), the “deethylation activity, ratio to control (in parentheses)” value (from here on “deethylation activity, ratio to control”) was found to be 0.98; the “demethylation activity, ratio to control (in parentheses)” value (“demethylation activity, ratio” below) turned out to be 1.08; the “depropylation activity, ratio to control (in parentheses)” value (“depropylation activity, ratio” below) is on record as 0.89.
Regarding `O=C1CCCN1C(=O)NCCCN1CC=C(c2ccc(Cl)c(Cl)c2)CC1` [Compound (c)], in data set [3] (setting [5]), the “deethylation activity, ratio to control” value amounted to 1.99; the “demethylation activity, ratio” value is reported as 1.61; the “depropylation activity, ratio” value was determined as 2.20. Moreover, in data set [3] (setting [6]), the “deethylation activity (7-alkoxycumarin-O-dialkylase)” value is 2.29 ± 0.18 nmol/min/mg of microsome protein, the “demethylation activity (7-alkoxycumarin-O-dialkylase)” value is reported as 1.83 ± 0.19 nmol/min/mg of microsome protein and the “depropylation activity (7-alkoxycumarin-O-dialkylase)” value is reported as 0.99 ± 0.55 nmol/min/mg of microsome protein. Moreover, the “enzyme induction (in words)” value in data set [3] (mouse liver, three days) is on record as “carcinogenic enzyme induction of β-naphthoflavone type (3-methylcholanthrene type)”. For the same compound, in data set [3] (setting [7]), the “increase in deethylation and depropylation activities” value was 1.99-2.20 times; the “increase in demethylation activity” value worked out at 1.61 times.
`CCC1(c2ccccc2)C(=O)NC(=O)NC1=O` [phenobalbital, phenobarbital]: in data set [3] (setting [5]), the “deethylation activity, ratio to control” value is recorded as 2.53; the “demethylation activity, ratio” value was 2.29; the “depropylation activity, ratio” value worked out at 2.20. Besides, in data set [3] (setting [6]), the “deethylation activity (7-alkoxycumarin-O-dialkylase)” value was 2.63 ± 0.18 nmol/min/mg of microsome protein, the “demethylation activity (7-alkoxycumarin-O-dialkylase)” value is 2.18 ± 0.13 nmol/min/mg of microsome protein and the “depropylation activity (7-alkoxycumarin-O-dialkylase)” value was 1.06 ± 0.06 nmol/min/mg of microsome protein.
Take `O=c1cc(-c2ccccc2)oc2ccc3ccccc3c12` [β-naphtoflavone, β-naphthoflavone]: in data set [3] (mouse, in vivo, ip, 100 mg/kg), the “deethylation activity (7-alkoxycumarin-O-dialkylase)” value is 5.26 ± 0.28 nmol/min/mg of microsome protein, the “demethylation activity (7-alkoxycumarin-O-dialkylase)” value is on record as 1.94 ± 0.08 nmol/min/mg of microsome protein and the “depropylation activity (7-alkoxycumarin-O-dialkylase)” value is recorded as 2.97 ± 0.20 nmol/min/mg of microsome protein. Besides, in data set [3] (setting [4]), the “deethylation activity, ratio to control” value worked out at 5.06; the “demethylation activity, ratio” value is listed as 2.04; the “depropylation activity, ratio” value is 6.19.

By IC50 is commonly meant the point on the concentration scale where inhibition reaches its midpoint. A lower IC50 goes with inhibition by little substance.
